In publication PMC6033213, “Structurally simple synthetic 1, 4-disubstituted piperidines with high selectivity for resistant Plasmodium falciparum” (BMC Pharmacology & Toxicology, 2018):
≈ marks a conversion by molar mass, not a printed value. Where two headings read alike, the source gives them in different places.

Key:
[1] = tested on: P. falciparum Dd2; assay: Secondary screen: parasite growth inhibition by parasite lactate dehydrogenase (pLDH) assay, Dd2; assay type: cell-based, Plasmodium falciparum; set-up: key to Antiplasmodial activity class on Dd2: active, IC50 < 5 μg/mL; moderately active: 5 μg/mL ≤ IC50 ≤ 10 μg/mL; weakly active: IC50 ≥ 10 μg/mL
From the text: (§1) Two Plasmodium falciparum parasite strains were obtained from MR4 (Manassas, Virginia, USA) and stored in liquid nitrogen. The 3D7 (MRA-102) strain is chloroquine- sensitive while Dd2 is a multidrug resistant clone of the W2 strain with resistance to chloroquine, quinine, mefloquine, sulfadoxine and pyrimethamine. Parasite stocks were thawed, grown and maintained in continuous culture by the candle jar technique with some modifications. The culture consisted of 4% hematocrit suspension of human O+ erythrocytes in RPMI-1640 medium (10.43 g/L supplemented with 0.01 mg/mL gentamycin, 25 mM Hepes buffer, 25 mM NaHCO3) and 5 g Albumax II. All culture reagents were obtained from Sigma-Aldrich Inc. (Germany) except for Albumax II (Gibco; Invitrogen, USA). Cultures were incubated at 37 °C in 5% CO2.
(§2) After incubation the plate was frozen at − 20 °C for the parasite lactate dehydrogenase (pLDH) assay.
(§3) The reagent preparation and assay were done as described. The plates were subjected to 3 freeze-thaw cycles to haemolyze the red blood cells. One hundred microlitre (100 μL) of Malstat reagent was added to each required well of a fresh microtitre plate followed by 20 μL of culture. Then 25 μL of nitroblue tetrazolium/phenazine ethosulfate (NBT/PES) solution was added initiating the reaction. The plates were then incubated for an hour in the dark and optical density (OD) measured at 650 nm (Emax-Molecular Devices Corporation, California, USA).
(§4) For the parasite lactate dehydrogenase assay, the background OD of blank wells containing non parasitized red blood cells was subtracted from values of all test wells. OD values from control wells void of test compound represented the maximum pLDH activity. The OD values obtained were used to determine the IC50, and IC90 values using the software IC Method IC Estimator V1.2 [18], an online calculator of IC values. Each assay was done twice in duplicates and the 4 IC50 or CC50 values obtained were pooled together and expressed as mean IC ± S.D.

[2] = tested on: P. falciparum 3D7; assay: Secondary screen: parasite growth inhibition by parasite lactate dehydrogenase (pLDH) assay, 3D7; assay type: cell-based, Plasmodium falciparum; set-up: key to Antiplasmodial activity class on 3D7: active, IC50 < 5 μg/mL; moderately active: 5 μg/mL ≤ IC50 ≤ 10 μg/mL; weakly active: IC50 ≥ 10 μg/mL
From the text: as §1, §2, §3, §4

[3] = tested on: P. falciparum Dd2; assay: Primary screen: in vitro parasite growth inhibition at a single concentration, fluorescence microscopy with acridine orange; assay type: cell-based, Plasmodium falciparum; details: 40 μg/mL, 48 h, Dd2 chloroquine-resistant strain; for inhibition at 40 µg/mL: Plasmodium falciparum
From the text: as §1
A primary screen for antiplasmodial activity at a single concentration was performed against Dd2 as described with some modifications, to identify active compounds. Stock solutions of compound (1 mg/mL) was initially dissolved in dimethylsulfoxide (DMSO), then gentamycin-free incomplete medium (without Albumax II) added giving 2% final DMSO; the solutions were sterilized and stored. The positive control solutions (artemether and quinine at 5 μg/mL) were prepared similarly. The compounds were tested at a final concentration of 40 μg/mL in duplicate in a 96 well microtitre plate (100 μL per well), followed by 100 μL of 1% parasitized blood. Positive and negative controls (no drug) were included. The plate was incubated under the same culture conditions as above for 48 h and antiplasmodial activity determined by fluorescence microscopy (Leitz Wetzlar, Germany) with acridine orange stain at × 40 magnification under oil immersion. The number of infected erythrocytes (Ei) was counted in 20 monolayer fields (approximately 1500 cells per field) and the percentage parasitaemia was calculated using the formula:1 %parasitaemia=∑Ei/30,000×100
The percentage inhibition per concentration was then obtained using the formula below:2 percentage%inhibition=%parasitaemia of control well‐%parasitaemia of test well/%parasitaemia of control well×100

[4] = Cytotoxicity test, MTT/formazan assay; assay type: cell-based, monkey; details: monkey, LLC-MK2 monkey kidney epithelial cells; LLC-MK2 cells, 72 h, MTT/formazan
Experimental: (§5) This was done on monkey kidney epithelial cells, LLC-MK2, (ATCC, USA) as described except for use of same culture medium and conditions for P falciparum above. The cells, 10,000 in 100 μL medium per well, were cultured for 24 h to become confluent and attached to the bottom of the well and the medium replaced with 100 μL of fresh medium. […] A negative control without test substance was included. The plates were incubated for 72 h at 37 °C in 5% CO2 and cell viability were determined using microscopy to observe dead cells which appeared dark and deformed. This was followed by the MTT/formazan assay as described above with slight modification. The CC50 values (50% cytotoxic concentration) for each compound was obtained using Microsoft excel 2007. The selectivity index (SI) was calculated using the formula:3 SI=CC50onLLC‐MK2cells/IC50onP.falciparum
as §4

[5] = tested on: LLC-MK2 monkey kidney epithelial cells; assay: Cytotoxicity test, MTT/formazan assay; assay type: cell-based; details: for SI on 3D7: CC50 on LLC-MK2 cells/IC50 on P. falciparum 3D7; for SI on Dd2: CC50 on LLC-MK2 cells/IC50 on P. falciparum Dd2; for Mean SI: mean of the Selectivity Indices of the 3D7 and Dd2 parasite strains
Experimental: as §5, §4

[6] = Plasmodium falciparum, Dd2 chloroquine-resistant strain, pLDH assay, mean ± S.D., read-out: IC50
[7] = Plasmodium falciparum, Dd2 chloroquine-resistant strain, pLDH assay, mean ± S.D., read-out: IC90
[8] = Plasmodium falciparum, 3D7 chloroquine-sensitive strain, pLDH assay, mean ± S.D., read-out: IC50
[9] = Plasmodium falciparum, Dd2 strain, class by IC50, read-out: Antiplasmodial activity class on Dd2
[10] = Plasmodium falciparum, 3D7 chloroquine-sensitive strain, pLDH assay, mean ± S.D., read-out: IC90
[11] = Plasmodium falciparum, 3D7 strain, class by IC50, read-out: Antiplasmodial activity class on 3D7
[12] = Dd2 chloroquine-resistant strain, pLDH assay, mean ± S.D.
[13] = 3D7 chloroquine-sensitive strain, pLDH assay, mean ± S.D.

Compound | IC50 [1, 6] | IC90 [1, 7] | IC50 [2, 8] | inhibition at 40 µg/mL [3] | IC50 [1, 9] | IC90 [2, 10] | IC50 [2, 11] | CC50 at 72 h [4] | SI on 3D7 [5] | SI on Dd2 [5] | Mean SI [5] | Antiplasmodial activity class on 3D7 ([2]; 3D7 strain, class by IC50) | Antiplasmodial activity class on Dd2 ([1]; Dd2 strain, class by IC50) | Inhibition (%) of P. falciparum Dd2 growth [3] | IC50 [1, 12] | IC90 [1, 12] | IC50 [2, 13] | IC90 [2, 13]
CO[C@H]1O[C@@H]2O[C@@]3(C)CC[C@H]4[C@H](C)CC[C@@H]([C@H]1C)[C@@]24OO3 [Art, artemether, reference compound] | 0.039 µg/mL (≈ 0.131 µM) | 0.046 µg/mL (≈ 0.154 µM) | 0.045 µg/mL (≈ 0.151 µM) |  |  |  |  |  |  |  |  |  |  |  |  |  |  | 
O=C(c1ccc(F)cc1)C1CCN(Cc2ccc(F)cc2)CC1 [Compound 1, [1-(4-fluorobenzyl)piperidin-4-yl] [4-fluorophenyl] methanone] | 5.69 ± 2.38 µg/mL (≈ 18 µM) | 27.6 ± 0.78 µg/mL (≈ 87.5 µM) | 8.45 ± 2.11 µg/mL (≈ 26.8 µM) | 83.2% | 5 to 10 µg/mL (≈ 15.9 to 31.7 µM) | 17.9 ± 0.18 µg/mL (≈ 56.6 µM) | 5 to 10 µg/mL (≈ 15.9 to 31.7 µM) | 188 µg/mL (≈ 595 µM) | 22.17 | 32.91 | 27.54 ± 7.59 |  |  |  |  |  |  | 
O=C(c1ccc(F)cc1)C1CCN(Cc2ccc(Cl)c(Cl)c2)CC1 [Compound 2, [1-(3,4-dichlorobenzyl)piperidin-4-yl] [4-fluorophenyl] methanone] | 5.97 ± 0.02 µg/mL (≈ 16.3 µM) | 24.9 ± 4.14 µg/mL (≈ 67.9 µM) | 4.3 ± 3.75 µg/mL (≈ 11.7 µM) | 82.7% | 5 to 10 µg/mL (≈ 13.7 to 27.3 µM) | 17.61 ± 0.06 µg/mL (≈ 48.1 µM) |  | 188 µg/mL (≈ 512 µM) | 43.51 | 31.37 | 37.44 ± 8.58 | active |  |  |  |  |  | 
O=C(c1ccc(F)cc1)C1CCN(Cc2ccc(Cl)cc2)CC1 [Compound 3, [1-(4-chlorobenzyl)piperidin-4-yl] [4-fluorophenyl] methanone] | 4.12 ± 1.28 µg/mL (≈ 12.4 µM) | 32.4 ± 0.67 µg/mL (≈ 97.6 µM) | 3.21 ± 0.21 µg/mL (≈ 9.67 µM) | 56.6% |  | 17.9 ± 2.39 µg/mL (≈ 53.9 µM) |  | 62.5 µg/mL (≈ 188 µM) |  |  | 17.31 ± 3.0 | active | active |  |  |  |  | 
O=C(c1ccc(F)cc1)C1CCN(Cc2ccccc2[N+](=O)[O-])CC1 [Compound 4, [1-(2-nitrobenzyl)piperidin-4-yl] [4-fluorophenyl] methanone] |  |  |  | 27.7% |  |  |  |  |  |  |  |  |  | poor inhibition |  |  |  | 
O=C(c1ccc(F)cc1)C1CCN(Cc2ccc(Br)cc2)CC1 [Compound 5, [1-(4-bromobenzyl)piperidin-4-yl] [4-fluorophenyl] methanone] | 14.5 ± 1.34 µg/mL (≈ 38.6 µM) | 32.3 ± 4.17 µg/mL (≈ 85.9 µM) | 10 ± 0.3 µg/mL (≈ 26.6 µM) | 64.8% | ≥ 10 µg/mL | 17.2 ± 0.97 µg/mL (≈ 45.8 µM) | ≥ 10 µg/mL |  |  |  |  |  |  |  |  |  |  | 
Cc1ccc(CN2CCC(C(=O)c3ccc(F)cc3)CC2)cc1 [Compound 6, [1-(4-methylbenzyl)piperidin-4-yl] [4-fluorophenyl] methanone] | 12.8 ± 3.21 µg/mL (≈ 40.9 µM) | 37.1 ± 0.53 µg/mL (≈ 119 µM) | 13.6 ± 0.31 µg/mL (≈ 43.8 µM) | 59.1% | ≥ 10 µg/mL | 19.1 ± 2.46 µg/mL (≈ 61.3 µM) | ≥ 10 µg/mL |  |  |  |  |  |  |  |  |  |  | 
OC(c1ccc(F)cc1)C1CCN(Cc2ccc(F)cc2)CC1 (centres unmarked) [Compound 7, [1-(4-fluorobenzyl)piperidin-4-yl] [4-fluorophenyl] methanol] | 2.52 µg/mL (≈ 7.94 µM) | 17.7 ± 4.34 µg/mL (≈ 55.8 µM) | 4 ± 0.67 µg/mL (≈ 12.6 µM) | 81.3% |  | 14.6 ± 1.52 µg/mL (≈ 46 µM) |  | 375 µg/mL (≈ 1180 µM) | 93.67 | 148.34 | 121.01 ± 38.7 | active | active |  |  |  |  | 
OC(c1ccc(F)cc1)C1CCN(Cc2ccc(Cl)c(Cl)c2)CC1 (centres unmarked) [Compound 8, [1-(3,4-dichlorobenzyl)piperidin-4-yl] [4-fluorophenyl] methanol] | 1.3 µg/mL (≈ 3.53 µM) | 17.3 ± 3.27 µg/mL (≈ 47.1 µM) | 4.43 ± 0.32 µg/mL (≈ 12 µM) | 81.7% |  | 13.9 ± 1.25 µg/mL (≈ 37.7 µM) |  | 93.8 µg/mL (≈ 255 µM) | 21.14 | 71.67 | 46.41 ± 35.7 | active | active |  |  |  |  | 
OC(c1ccc(F)cc1)C1CCN(Cc2ccc(Cl)cc2)CC1 (centres unmarked) [Compound 9, [1-(4-chlorobenzyl)piperidin-4-yl] [4-fluorophenyl] methanol] | 1.67 ± 0.24 µg/mL (≈ 5 µM) | 16.1 ± 2.13 µg/mL (≈ 48.2 µM) | 1.53 ± 0.24 µg/mL (≈ 4.58 µM) | 93.2% |  | 16.1 ± 2.13 µg/mL (≈ 48.2 µM) |  | 250 µg/mL (≈ 749 µM) |  |  | 156.25 ± 9.5 | active | active |  |  |  |  | 
O=[N+]([O-])c1ccccc1CN1CCC(C(O)c2ccc(F)cc2)CC1 (centres unmarked) [Compound 10, [1-(2-nitrobenzyl)piperidin-4-yl] [4-fluorophenyl] methanol] | 14 ± 1.76 µg/mL (≈ 40.6 µM) | 35.3 ± 2.02 µg/mL (≈ 102 µM) | 13.5 ± 0.54 µg/mL (≈ 39.3 µM) | 79.7% | ≥ 10 µg/mL | 19.11 ± 0.02 µg/mL (≈ 55.5 µM) | ≥ 10 µg/mL |  |  |  |  |  |  |  |  |  |  | 
OC(c1ccc(F)cc1)C1CCN(Cc2ccc(Br)cc2)CC1 (centres unmarked) [Compound 11, [1-(4-bromobenzyl)piperidin-4-yl] [4-fluorophenyl] methanol] | 1.03 µg/mL (≈ 2.72 µM) | 27.8 ± 0.98 µg/mL (≈ 73.5 µM) | 2.51 ± 0.3 µg/mL (≈ 6.64 µM) | 85.6% |  | 16.8 ± 0.88 µg/mL (≈ 44.4 µM) |  | 188 µg/mL (≈ 496 µM) | 74.49 |  | 128.26 ± 76.1 | active | active |  |  |  |  | 
Cc1ccc(CN2CCC(C(O)c3ccc(F)cc3)CC2)cc1 (centres unmarked) [Compound 12, [1-(4-methylbenzyl)piperidin-4-yl] [4-fluorophenyl] methanol] | 2.78 ± 0.09 µg/mL (≈ 8.87 µM) | 10.2 ± 3.31 µg/mL (≈ 32.5 µM) | 3.37 ± 0.82 µg/mL (≈ 10.8 µM) | 83.1% |  | 15.7 µg/mL (≈ 50.2 µM) |  | 188 µg/mL (≈ 598 µM) | 55.52 | 67.39 | 61.46 ± 8.39 | active | active |  |  |  |  | 
C=C[C@H]1C[N@@]2CC[C@H]1C[C@H]2[C@H](O)c1ccnc2ccc(OC)cc12 [QN, quinine, reference compound] | 0.127 µg/mL (≈ 0.391 µM) |  | 0.171 µg/mL (≈ 0.527 µM) |  |  |  |  |  |  |  |  |  |  |  |  |  |  | 
N-{[1-(4-bromobenzyl) piperidin-4-yl] [4-fluorophenyl] methyl}-3-bromobenzylamine [Compound 14] |  |  |  |  |  |  |  |  | 163 |  |  | active | active | 86.0% | 2.57 ± 1.64 µg/mL | 16.21 ± 0.35 µg/mL | 2.28 ± 0.64 µg/mL | 11.31 ± 3.50 µg/mL
